Assay [1] deals with T1, α1B adrenoceptor (Rattus norvegicus, UniProt P15823).
T1 construct: from tissue; host or cells: rat liver membranes
T1 sequence (P15823 1-515): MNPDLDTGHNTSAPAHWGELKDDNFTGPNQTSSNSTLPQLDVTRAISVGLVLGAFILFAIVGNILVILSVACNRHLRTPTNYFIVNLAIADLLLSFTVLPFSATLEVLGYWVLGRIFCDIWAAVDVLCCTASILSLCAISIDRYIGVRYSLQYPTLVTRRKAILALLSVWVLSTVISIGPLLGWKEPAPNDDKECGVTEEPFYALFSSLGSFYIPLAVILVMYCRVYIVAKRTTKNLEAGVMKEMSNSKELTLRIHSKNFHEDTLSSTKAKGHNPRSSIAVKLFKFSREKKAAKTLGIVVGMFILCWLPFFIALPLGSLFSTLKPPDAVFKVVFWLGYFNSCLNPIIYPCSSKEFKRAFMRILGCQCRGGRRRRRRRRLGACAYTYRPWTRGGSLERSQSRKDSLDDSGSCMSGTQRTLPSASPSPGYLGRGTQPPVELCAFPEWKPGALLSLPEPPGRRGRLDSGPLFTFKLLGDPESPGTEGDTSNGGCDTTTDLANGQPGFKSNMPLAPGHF
Kind of assay: Radioligand binding, [3H] prazosin displacement, rat liver membranes. The following applies: read-out: Affinity for α1B (Rat Liver), Ki. The method, then:
(§1) Receptor binding assays were performed using native α-adrenoceptors. The affinity of different compounds for α1A and α1B adrenoceptor subtypes was evaluated by studying their ability to displace specific [^3H] prazosin binding from the membranes of rat submaxillary and liver respectively (Michel et al, Br J. Pharmacol.; 1989; 98:883). The binding assays were performed according to U'Prichard et al. (Eur J Pharmacol., 1978; 50:87) with minor modifications.
(§2) Submaxillary glands were isolated immediately after sacrifice. The liver was perfused with buffer (Tris HCl 50 mM, NaCl 100 mM, 10 mM EDTA pH 7.4). The tissues were homogenised in 10 volumes of buffer (Tris HCl 50 mM, NaCl 100 mM, 10 mM EDTA pH 7.4). The homogenate was filtered through two layers of wet gauge and filtrate was centrifuged at 500 g for 10 min. The supernatant was subsequently centrifuged at 40,000 g for 45 min. The pellet thus obtained was resuspended in the same volume of assay buffer (Tris HCl 50 mM, 5 mM EDTA pH 7.4) and were stored at −70° C. until the time of assay.
(§3) The membrane homogenates (150-250 μg protein) were incubated in 250 μl of assay buffer (Tris HCl 50 mM, EDTA 5 mM, pH 7.4) at 24-25° C. for 1 hour. Non specific binding was determined in the presence of 300 nM prazosin. The incubation was terminated by vacuum filtration over GF/B fibre filters. The filters were then washed with ice cold 50 mM Tris HCl buffer (pH 7.4). The filtermats were dried and bound radioacivity retained on filters was counted. The IC50 and Kd were estimated by using the non linear curve fitting program using G Pad Prism software. The value of inhibition constant Ki was calculated from competitive binding studies by using Cheng & Prusoff equation (Cheng & Prusoff, Biochem Pharmacol, 1973,22: 3099), Ki=IC50/(1+L/Kd) where L is the concentration of [^3H] prazosin used in the particular experiment (Table I).

In assay [2] the target is T2, α1A adrenoceptor (Rattus norvegicus, UniProt P43140).
T2 construct: from tissue; host or cells: rat submaxillary gland membranes
T2 sequence (P43140 1-466): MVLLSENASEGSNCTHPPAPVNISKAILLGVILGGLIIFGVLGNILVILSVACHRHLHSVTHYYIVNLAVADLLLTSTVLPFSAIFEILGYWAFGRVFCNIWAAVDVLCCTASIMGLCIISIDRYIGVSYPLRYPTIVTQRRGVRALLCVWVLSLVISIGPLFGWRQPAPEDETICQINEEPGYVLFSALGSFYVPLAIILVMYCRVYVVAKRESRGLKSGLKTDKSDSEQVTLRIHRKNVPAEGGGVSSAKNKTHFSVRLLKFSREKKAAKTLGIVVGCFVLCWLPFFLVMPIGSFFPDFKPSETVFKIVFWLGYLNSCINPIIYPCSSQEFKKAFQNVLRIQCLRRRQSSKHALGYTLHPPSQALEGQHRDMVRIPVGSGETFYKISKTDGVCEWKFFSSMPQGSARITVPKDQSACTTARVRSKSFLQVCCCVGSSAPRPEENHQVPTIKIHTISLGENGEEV
Kind of assay: Radioligand binding, [3H] prazosin displacement, rat submaxillary membranes. The following applies: for Ki: [3H] prazosin displacement, rat submaxillary membranes, read-out: Affinity for α1A (Rat Submaxillary), Ki; for α1B/α1A: ratio of binding affinities, rat liver vs rat submaxillary. How it is done: as §1, §2, §3

Assay [3] concerns the target T3, prostate (α1A) (Rattus norvegicus, UniProt P43140).
T3 construct: from tissue; host or cells: isolated rat prostate (male Wistar)
T3 sequence (P43140 1-466): T2 sequence (P43140 1-466)
Kind of assay: In vitro functional study, isolated rat prostate, antagonism of phenylepinephrine contraction. Format: biochemical. From the text:
(§4) In order to study selectivity of action of these compounds towards different α-adrenoceptor subtypes, the ability of these compounds to antagonise aorta (α1D), prostate (α1A) and spleen (α1B) was studied. Aorta, prostrate and spleen tissues were isolated from urethane anaesthetized (1.5 g/kg) male wister rats. Isolated tissues were mounted in organ bath containing Krebs Henseleit buffer of the following composition (mM): NaCl 118; KCl 4.7; CaCl2 2.5; MgSO4 7H2O 1.2; NaHCO3 25; KH2PO4 1.2; glucose 11.5. Buffer was maintained at 37° C. and aereated with a mixture of 95% O2 and 5% CO2. A resting tension of 2 g (aorta) or 1 g (spleen and prostate) was applied to tissues. Contractile response was monitored using a force displacement transducer and recorded on chart recorders. Tissues were allowed to equilibrate for 2 hours. At the end of equilibration period, concentration response curves to norepinephrine (aorta) and phenylepinephrine (spleen and prostate) were obtained in the absence and presence of tested compound (at concentration of 0.1, 1 and 10 μM). Antagonist affinity was calculated and expressed as pKB values in Table II.

The target of assay [4] is T4, spleen (α1B) (Rattus norvegicus, UniProt P15823).
T4 construct: from tissue; host or cells: isolated rat spleen (male Wistar)
T4 sequence (P15823 1-515): T1 sequence (P15823 1-515)
The experiment in a line: In vitro functional study, isolated rat spleen, antagonism of phenylepinephrine contraction. Format: biochemical. The settings on record: compound at 0.1, 1 and 10 μM.
Source text: as §4

For assay [5], the target named is T5, aorta (α1D) (Rattus norvegicus, UniProt P23944).
T5 construct: Isolated tissues were mounted in organ bath containing Krebs Henseleit buffer; from tissue; host or cells: isolated rat aorta (male Wistar)
T5 sequence (P23944 1-561): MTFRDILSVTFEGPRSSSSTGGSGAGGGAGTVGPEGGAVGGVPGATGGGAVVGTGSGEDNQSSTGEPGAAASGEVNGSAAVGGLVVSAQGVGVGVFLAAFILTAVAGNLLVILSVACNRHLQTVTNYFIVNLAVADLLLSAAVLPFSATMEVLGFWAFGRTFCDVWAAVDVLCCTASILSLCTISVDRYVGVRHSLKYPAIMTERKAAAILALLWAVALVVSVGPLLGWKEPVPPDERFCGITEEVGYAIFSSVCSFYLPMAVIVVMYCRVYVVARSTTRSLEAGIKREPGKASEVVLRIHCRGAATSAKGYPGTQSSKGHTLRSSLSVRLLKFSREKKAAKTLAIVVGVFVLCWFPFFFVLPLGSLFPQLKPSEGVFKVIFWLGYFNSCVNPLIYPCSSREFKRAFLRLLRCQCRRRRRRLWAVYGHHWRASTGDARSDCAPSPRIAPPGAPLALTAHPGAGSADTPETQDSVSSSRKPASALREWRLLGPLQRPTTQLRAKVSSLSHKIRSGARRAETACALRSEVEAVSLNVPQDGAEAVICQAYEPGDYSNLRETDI
The experiment in a line: In vitro functional study, isolated rat aorta, antagonism of norepinephrine contraction. Format: biochemical. The following applies: compound at 0.1, 1 and 10 μM.
Source text: as §4

For assay [6], the target named is α1-adrenoceptor. The following applies: background statement; cited from earlier work.

Where a name gives a salt, the structure may show the parent alone.

In the case of `CC(C)Oc1ccccc1N1CCN(CCCNC(=O)CCCC(=O)O)CC1`, the Ki in assay [1] came to 2100 nM. In addition, in assay [2], the Ki came to 777 nM and the α1B/α1A was 3.
On to `O=C(O)C1CC=CCC1C(=O)NCC(O)CN1CCN(c2ccccc2O)CC1` (centres unmarked) [Compound No. 4], for which the figures for the Ki in assay [1] and in assay [2] were 9740 nM and 1890 nM, respectively. In addition, the α1B/α1A in assay [2] stood at 5.
As to “1-Carboxy cyclohex-4-ene-2-[N-{3-(2-ethoxyphenyl)piperazin-1yl}-2-hydroxyphenyl]carboxamide [Compound No. 6]”, the Ki in assay [1] was found to be 1240 nM. In addition, in assay [2], the Ki stood at 398 nM and the α1B/α1A worked out at 3.
Consider `COc1ccccc1N1CCN(CC(O)CNC(=O)C2CC=CCC2C(=O)O)CC1` (centres unmarked) [Compound No. 3], for which the Ki in assay [1] and in assay [2] was greater than 1000 nM in each case.
For `CC(C)Oc1ccccc1N1CCN(CCCNC(=O)C2CC=CCC2C(=O)O)CC1` (centres unmarked) [Compound No. 2, 1-Carboxy cyclohex-4-ene-2-[N-{3-(2-isopropoxyphenyl)piperazin-1-yl}propyl]carboxamide], the Ki in assay [1] was greater than 1000 nM. In assay [2], the Ki turned out to be 19 nM and the α1B/α1A is recorded as greater than 53.
For `COc1ccccc1N1CCN(CC(O)CNC(=O)CCCC(=O)O)CC1` (centres unmarked) [Compound No. 12] the same measures were greater than 10000 nM, greater than 1000 nM and 1.
As to “1-Carboxycyclohex-4-ene-2-[N-{3-(2-ethoxyphenyl)piperazin-1-yl}propyl]carboxamide [Compound No. 1]”, the Ki in assay [1] was greater than 1000 nM. In addition, the “Selectivity α1D/α1A” value in assay [3] (functional assays, aorta vs prostate) worked out at 9.5. Besides, the “Selectivity α1B/α1A” value in assay [3] (functional assays, spleen vs prostate) was 1.15. Also, in assay [3] (rat prostate, phenylepinephrine, compound at 0.1, 1 and 10 μM), the “α1A (pKB)” value was 8.22. In assay [4], the “α1B (pKB)” value is listed as 8.16. Also, the “α1D (pKB)” value in assay [5] is listed as 7.24. Also, in assay [2], the Ki is 20 nM and the α1B/α1A is greater than 50.
With `O=C(O)CCCC(=O)NCCCN1CCN(c2ccccc2O)CC1` [Compound No. 7, 5-[N-{3-(2-hydroxyphenyl)piperazin-1-yl}]-1-aminopropyl-5-oxo-pentan-1-oic acid], the inhibition constant Ki stood at 13000 nM in assay [1] and 12600 nM in assay [2]. Besides, in assay [2], the α1B/α1A is 1.
The corresponding values for `O=C(O)C1CC=CCC1C(=O)NCCCN1CCN(c2ccccc2O)CC1` (centres unmarked) [Compound No. 8, 1-Carboxy cyclohex-4-ene-2-[N-{3-(2-hydroxyphenyl)piperazin-1-yl}propyl]carboxamide] are 5080 nM, 593 nM and 9.
As for `COc1cc2nc(N3CCN(C(=O)c4ccco4)CC3)nc(N)c2cc1OC` [prazosin], the “α1-adrenergic blocking activity (pKi)” value in assay [6] was greater than 8.
Regarding `COC(=O)CCCC(=O)NCCCN1CCN(c2ccccc2OC)CC1` [hydrochloride], in assay [1], the Ki is greater than 1000 nM. In assay [2], the Ki worked out at 139 nM and the α1B/α1A was greater than 7.
The corresponding values for “1-Carboxymethylcyclohex-4-ene-2-[N-{3-(2-isopropoxyphenyl)piperazin-1-yl}-propyl]carboxamide hydrochloride [Compound No. 11]” are 99 nM, 3.15 nM and 31.
As to `CC(C)Oc1ccccc1N1CCN(CC(O)CNC(=O)C2CC=CCC2C(=O)O)CC1` (centres unmarked) [Compound No. 5, 1-Carboxy cyclohex-4-ene-2-[N-{3-(2-isopropoxyphenyl)piperazin-1-yl}-2-hydroxypropyl]carboxamide], in assay [1], the Ki was found to be 1760 nM. In addition, in assay [2], the inhibition constant (Ki) came out at 21 nM and the α1B/α1A is listed as 84.

Broadly, the Ki is a measure of affinity in units of concentration, obtained from inhibition or displacement.

The values are drawn from US20060247249A1 (priority 2005, published 2006).
